Measurements published in article PMC3163375, “Design, Synthesis and Biological Evaluation of New 5,5-Diarylhydantoin Derivatives as Selective Cyclooxygenase-2 Inhibitors” (Scientia Pharmaceutica, 2011).

Experiments:
ovine COX-1 = target: T1, ovine COX-1 (Ovis aries, UniProt P05979); experiment: In vitro COX-1 enzyme inhibition, chemiluminescent enzyme assay kit (Cayman); assay type: biochemical; conditions: ovine COX-1/COX-2 assay kit; means of two determinations, deviation < 10% of the mean
T1 construct: purchased Cayman Chemical, Ann Arbor, MI, USA
T1 sequence (P05979 25-600): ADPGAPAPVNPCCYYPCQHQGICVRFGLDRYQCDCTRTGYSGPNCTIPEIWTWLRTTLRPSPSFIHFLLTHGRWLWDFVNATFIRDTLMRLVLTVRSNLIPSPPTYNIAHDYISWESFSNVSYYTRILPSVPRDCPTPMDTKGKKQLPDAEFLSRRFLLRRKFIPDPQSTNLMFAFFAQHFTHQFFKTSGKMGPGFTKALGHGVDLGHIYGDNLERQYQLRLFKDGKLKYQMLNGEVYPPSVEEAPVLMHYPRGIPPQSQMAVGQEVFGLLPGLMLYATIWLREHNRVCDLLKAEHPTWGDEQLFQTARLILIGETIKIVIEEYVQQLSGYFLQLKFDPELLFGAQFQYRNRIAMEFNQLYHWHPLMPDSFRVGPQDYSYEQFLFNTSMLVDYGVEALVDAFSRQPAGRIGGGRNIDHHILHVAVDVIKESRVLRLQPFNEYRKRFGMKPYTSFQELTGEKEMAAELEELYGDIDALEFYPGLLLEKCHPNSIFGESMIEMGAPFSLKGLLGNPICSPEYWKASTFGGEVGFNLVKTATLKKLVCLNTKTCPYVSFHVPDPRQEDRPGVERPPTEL
Procedure: (§1) All of the prepared 5,5-diarylhydantoin derivatives having different substituents at the N-3 hydantoin ring were evaluated to investigate the effect of different alkyls on COX-2 selectivity and potency. The ability of the 5,5-diarylhydantoin 4–8 to inhibit the COX-1 and COX-2 isozymes was determined using chemiluminescent enzyme assays (see enzyme inhibition data in Table 1.) according to our previously reported method.
(§2) The ability of the test compounds listed in Table 1 to inhibit ovine COX-1 and COX-2 (IC50 value, μM) was determined using chemiluminescent enzyme assays kit (Cayman Chemical, Ann Arbor, MI, USA) according to our previously reported method.

ovine COX-2 = target: T2, ovine COX-2 (Ovis aries, UniProt P79208); experiment: In vitro COX-2 enzyme inhibition, chemiluminescent enzyme assay kit (Cayman); assay type: biochemical; conditions: for Selectivity index (SI): In vitro COX-2 selectivity index (COX-1 IC50/COX-2 IC50); for IC50: ovine COX-1/COX-2 assay kit, means of two determinations, deviation < 10% of the mean
T2 construct: purchased Cayman Chemical, Ann Arbor, MI, USA
T2 sequence (P79208 17-603): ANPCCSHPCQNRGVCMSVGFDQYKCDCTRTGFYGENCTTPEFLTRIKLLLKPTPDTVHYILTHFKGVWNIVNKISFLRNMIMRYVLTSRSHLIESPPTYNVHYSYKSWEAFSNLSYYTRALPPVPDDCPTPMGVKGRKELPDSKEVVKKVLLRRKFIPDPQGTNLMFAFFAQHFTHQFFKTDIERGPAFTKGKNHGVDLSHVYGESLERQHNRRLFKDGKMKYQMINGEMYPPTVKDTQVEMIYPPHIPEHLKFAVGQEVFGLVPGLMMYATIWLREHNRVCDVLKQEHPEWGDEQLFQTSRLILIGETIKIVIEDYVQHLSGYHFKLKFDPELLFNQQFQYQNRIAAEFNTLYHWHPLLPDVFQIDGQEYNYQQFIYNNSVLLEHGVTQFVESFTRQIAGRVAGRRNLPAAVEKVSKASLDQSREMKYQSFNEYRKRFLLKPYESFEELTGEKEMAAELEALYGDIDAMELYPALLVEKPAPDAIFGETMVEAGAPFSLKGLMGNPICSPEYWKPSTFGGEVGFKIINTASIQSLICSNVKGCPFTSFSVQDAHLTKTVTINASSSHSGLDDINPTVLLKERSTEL
Procedure: as §1, §2

Row | IC50 (ovine COX-1) | melting point | Selectivity index (SI) (ovine COX-2) | IC50 (ovine COX-2) | Compound
1 | > 100000 nM | – | >1298 | 77 nM | CS(=O)(=O)c1ccc(C2(c3ccccc3)NC(=O)NC2=O)cc1 (stereo not shown) [Compound 4, 5-[4-(Methylsulfonyl)phenyl]-5-phenylimidazolidine-2,4-dione]
2 | 20200 nM | 91 to 92 °C | 206.2 | 98 nM | CCN1C(=O)NC(c2ccccc2)(c2ccc(S(C)(=O)=O)cc2)C1=O (stereo not shown) [Compound 6, 3-Ethyl-5-[4-(methylsulfonyl)phenyl]-5-phenylimidazolidine-2,4-dione]
3 | 22700 nM | 212 to 214 °C | 280.1 | 81 nM | CN1C(=O)NC(c2ccccc2)(c2ccc(S(C)(=O)=O)cc2)C1=O (stereo not shown) [Compound 5, 3-Methyl-5-[4-(methylsulfonyl)phenyl]-5-phenylimidazolidine-2,4-dione]

The next lines start with the compound.

Row | Compound | IC50 (ovine COX-1) | melting point | Selectivity index (SI) (ovine COX-2) | IC50 (ovine COX-2)
4 | CCCN1C(=O)NC(c2ccccc2)(c2ccc(S(C)(=O)=O)cc2)C1=O (stereo not shown) [Compound 7, 5-[4-(Methylsulfonyl)phenyl]-5-phenyl-3-propylimidazolidine-2,4-dione] | 12000 nM | 82 to 83 °C | 70.2 | 171 nM
5 | C=CCN1C(=O)NC(c2ccccc2)(c2ccc(S(C)(=O)=O)cc2)C1=O (stereo not shown) [Compound 8, 5-[4-(Methylsulfonyl)phenyl]-5-phenyl-3-(prop-2-en-1-yl)imidazolidine-2,4-dione] | 15000 nM | 129 to 130 °C | 151.1 | 99 nM
